Reference: patent US20240041796A1, “ANTI-INFLAMMATORY COMPOSITION COMPRISING N-BENZYL-N-METHYLDECAN-1-AMINE OR A DERIVATIVE THEREOF AS AN ACTIVE INGREDIENT” (PUSAN NATIONAL UNIVERSITY INDUSTRY-UNIVERSITY COOPERATION …, priority 2022, published 2024)

Tests used:
[1] = tested on: human THP-1 monocytic cell line; assay: LPS-induced inflammation-related signal transduction in THP-1 cells, immunoblotting; assay type: cell-based; details: THP-1 cultured 3 hours with compound, then LPS 1 μg/ml 1 hour; FIG. 2A-B
Method: Each of BMDA (FMJ-G0) or DMMA (FMJ-G4) was added to a culture medium at concentrations of […], and 1 μM in a 6-well plate. The human THP-1 monocytic cell line (5×10^5 cells/well) was cultured therein for 3 hours. Each well was treated with lipopolysaccharide at a concentration of 1 μg/ml. After 1 hour, centrifugation was performed to obtain a supernatant which was used in an ELISA for inflammatory cytokine evaluation. Cell lysate was added to the collected THP-1 cells for immunoblotting.

male SD rats = assay: DNBS-induced colitis model, enema administration; assay type: in vivo, rat; details: for inflammatory response caused by DNBS / length of the large intestine (colon) / ulcer scab: 500 μL of 200 μg/mL through the anus for 5 days; for inflammatory response caused by DNBS: FIG. 3A-B; for production amount of CNIC-3 chemokine: ELISA of colon supernatant, FIG. 3E; for body weight lost due to the DNBS treatment: FIG. 3C; for length of the large intestine (colon) / ulcer scab: vs DNBS+PBS group; for macrophage peroxidase (MPO) activity in colon: vs DNBS+PBS-treated rat, FIG. 3D
Method: For experimental colitis, male SD rats (250 to 260 g) were fasted one day before developing colitis. A water bottle was prepared so that only water could be consumed by the rats. Then, after anesthesia of the rats, a rubber cannula is inserted into the anus, and a solution in which 48.0 mg DNBS was dissolved in 0.4 mL of 50% alcohol was injected thereto through the cannula. This process was repeated for 3 days.
From the 4th day since the DNBS was inserted, anesthesia of the rats was carried out, and then BMDA (FMJ-G0) and a derivative thereof (DMMA, FMJ-G4) were diluted with PBS, and then 500 μL of the diluted substance was injected at a concentration of 200 μg/mL thereto through the anus. This process was repeated for 5 days. In a control group, DMSO was diluted in PBS at the same concentration and then was injected in the same way for 5 days. Thereafter, on day 6, the rats were suffocated, and the large intestine was removed therefrom to evaluate a level of colitis according to a known method.
Moreover, a portion of the large intestine was removed, placed in a cell lysis buffer (20 mM Tris-HCl [pH 7.5], 150 mM NaCl, 1 mM EDTA, 1% Triton X-100, 0.5% SDS), and subjected to ultrasonic treatment. Centrifugation was carried out to collect only the supernatant. We quantified the protein, and performed immunoblotting thereon.
Further, a portion of the supernatant obtained after the centrifugation as prepared for immunoblotting was used to measure the amount of the chemokine CINC-3 (Cytokine-induced neutrophil chemoattractant) based on ELISA. Moreover, in order to measure the level of activity of macrophages infiltrated into the distal colon, a titer of MPO (Myeloperoxidase) was measured. The distal colon was pulverized in a supersonic pulverizing device, was centrifuged to obtain the supernatant. Then, hydrogen peroxide was added to the supernatant for decomposition. Change in absorbance was measured at 460 nm for 1 minute.

Balb/C mice = assay: DNCB-induced atopic dermatitis model, cosmetic cream applied to the skin; assay type: in vivo, mouse; details: for DNCB-induced atopic dermatitis (level of dermatitis): cosmetic cream (0.3% active; Lidomax ointment 0.15%) applied to the back for 2 weeks, 9C; for DNCB-induced atopic dermatitis (level of dermatitis) / hair regrowth on the skin: FIG. 9A; for size of the (inguinal) lymph node: cosmetic cream (Lidomax ointment 0.15%) applied for 2 weeks, FIG. 9B, 9D; for hair regrowth on the skin: cosmetic cream applied for 2 weeks; for thickness of the dermis: hematoxylin-eosin stained skin sections, FIG. 10A-B; for phosphorylation level of JNK in skin / phosphorylation level of NF-KB in skin / phosphorylation level of p38MAPK in skin: immunoblotting, FIG. 11D; for phosphorylation level of JNK in skin / phosphorylation level of NF-KB in skin / phosphorylation level of p38MAPK in skin / concentration of IgE in the blood: vs control group; for amount of COX2 transcriptome in skin / amount of IL-1β transcriptome in skin / amount of IL-6 transcriptome in skin / amount of TNF-α transcriptome in skin / amount of iNOS transcriptome in skin: qRT-PCR, vs DNCB control, FIG. 11A-C; for concentration of IgE in the blood: serum ELISA, 2 weeks of treatment, FIG. 10D; for invasion of mast cells into the dermis: toluidine-blue staining, FIG. 10C
Method: Wed added 0.3 g of olive wax to 2 mL of soybean oil (Sigma-Aldrich) in a glass tube (15 ml), and put the tube in a 75° C. water-bath, and performed a double boiling thereon to melt the olive wax for 30 minutes while vortexing the tube at 10 minute interval. Under the same conditions, 7.7 ml of purified water was put into a 75° C. water-bath and heated the same for 30 minutes. Next, 7.5 ml of purified water was poured into the tube containing the olive wax and the mixture was stirred well via vortexing. Then, […] (0.3%) of each of BMDA and derivatives thereof (FMJ-G0, FMJ-G4, FMJ-G1, FMJ-G2, FMJ-G3) as synthesized in Examples 1 and 3 were added to the mixture, followed by stirring. The reaction product was cooled in ice and prepared in the form of a cosmetic cream.
In order to induce atopic dermatitis using 5-week-old Balb/C mice, hair on the back of the mouse was removed therefrom, and after one day, a 0.5% solution in which DNCB (2,4-dinitrochlorobenzne) is mixed with acetone and olive oil (3:1) was prepared, and then was applied thereon for 3 consecutive days by 150 μL per each day. Thereafter, the solution of the same concentration was applied to the back area from which the hair was removed twice a week and this process continued for 2 weeks. Further, to alleviate atopic dermatitis induced in this way, the cosmetic cream containing each of BMDA (FMJ-G0) and the derivatives thereof (FMJ-G4, FMJ-G1, FMJ-G2, FMJ-G3) of the present disclosure as prepared above was applied to the back of rats with the induced atopic dermatitis for 2 weeks, and then, changes in skin inflammation were examined.
The experimental results of FIG. 10A and FIG. 10B was obtained as follows as in FIG. 9. The skin tissue was removed from the back of the mouse in the group, and was placed fixedly in 10% formaldehyde for 48 hours, and paraffin pieces were made, and the pieces were thinly sliced so as to have a thickness of 4 μm and was subjected to hematoxylin-esoin staining. Then, whether the damaged skin tissue was recovered by each of BMDA (FMJ-G0) and DMMA (FMJ-G4) was examined using an optical microscope equipped with a Leica application (Leica Microsystems, Switzerland).
To this end, the atopic dermatitis is induced in FIG. 9, and on 2 weeks since the treatment with BMDA (FMJ-G0) and DMMA (FMJ-G4), blood (500 ul) is collected from the hepatic veins of the rats of the above groups, and left at room temperature for 30 minutes. Then, serum was separated and prepared via centrifugation, and then, the IgE concentration related to the allergic reaction was measured through ELISA using the serum thus prepared.
Anti-mouse IgE (Pharmingen, CA, USA) was diluted with PBS (pH 7.4) on a 96-well plate, 100 μL thereof was coated on each 96-well plate, and then left at 4° C. for 12 hours. The plate was washed with PBS containing 0.05% tween. Blocking was performed thereon for 1 hour with PBS containing 1% BSA, 5% sucrose, and 0.05% NaN3. Washing was performed thereon several times using washing buffer. Recombinant IgE and serum were added thereto, and reaction occurred at 37° C. for 2 hours, and each well was washed again, and biotinylated IgE (Pharmingen, CA, USA) was added thereto. Reaction occurred for 2 hours. After washing the well, avidin peroxidase was added thereto and reaction occurred at 37° C. for 30 minutes. Then, the well was washed and then, ABTS solution as a substrate was added thereto. Absorbance was measured at 405 nm using ELISA reader (Epoch2, Biotek, VT, USA).
FIG. 11 show data obtained as follows. The atopic dermatitis was induced as described in FIG. 9, and on 2 weeks since the treatment with BMDA or DMMA (FMJ-G0/G4), a portion of the skin tissue of the rats in the groups were put in Trisol solution and the tissue was crushed in a sonicator. […]

CCCCCCCCCCN(C)Cc1ccccc1 [BMDA, N-benzyl-N-methyldecan-1-amine]
activity of JNK activated by LPS [1]: suppressed | activity of p38 MAPK activated by LPS [1]: suppressed | inflammation-related signaling pathway leading to p38 MAPK-MK2 [1]: inhibited | inflammatory response caused by DNBS (male SD rats): significantly reduced | production amount of CNIC-3 chemokine (male SD rats): low | body weight lost due to the DNBS treatment (male SD rats): did not restore | length of the large intestine (colon) (male SD rats): no significant difference | ulcer scab (male SD rats): much smaller | macrophage peroxidase (MPO) activity in colon (male SD rats): much lower | DNCB-induced atopic dermatitis (level of dermatitis) (Balb/C mice): significantly alleviated | size of the (inguinal) lymph node (Balb/C mice): the same as that of the spleen | hair regrowth on the skin (Balb/C mice): observed | thickness of the dermis (Balb/C mice): significantly reduced | phosphorylation level of JNK in skin (Balb/C mice): significantly lowered | phosphorylation level of NF-KB in skin (Balb/C mice): significantly lowered | phosphorylation level of p38MAPK in skin (Balb/C mice): significantly lowered | amount of COX2 transcriptome in skin (Balb/C mice): markedly lowered | amount of IL-1β transcriptome in skin (Balb/C mice): markedly lowered | amount of IL-6 transcriptome in skin (Balb/C mice): markedly lowered | amount of TNF-α transcriptome in skin (Balb/C mice): markedly lowered | amount of iNOS transcriptome in skin (Balb/C mice): markedly lowered | concentration of IgE in the blood (Balb/C mice): significantly lower | invasion of mast cells into the dermis (Balb/C mice): prevents

CCCCCCCCCCN(C)Cc1ccc(OC)cc1 [DMMA, Decyl-(4-methoxy-benzyl)-methyl-amine]
activity of JNK activated by LPS [1]: suppressed | activity of p38 MAPK activated by LPS [1]: suppressed | inflammation-related signaling pathway leading to p38 MAPK-MK2 [1]: inhibited | inflammatory response caused by DNBS (male SD rats): significantly reduced | production amount of CNIC-3 chemokine (male SD rats): low | body weight lost due to the DNBS treatment (male SD rats): did not restore | length of the large intestine (colon) (male SD rats): larger than that of the DNBS+PBS-treated rat group | ulcer scab (male SD rats): reduced | macrophage peroxidase (MPO) activity in colon (male SD rats): much lower | DNCB-induced atopic dermatitis (level of dermatitis) (Balb/C mice): significantly alleviated | size of the (inguinal) lymph node (Balb/C mice): the same as that of the spleen | hair regrowth on the skin (Balb/C mice): observed | thickness of the dermis (Balb/C mice): significantly reduced | phosphorylation level of JNK in skin (Balb/C mice): significantly lowered | phosphorylation level of NF-KB in skin (Balb/C mice): significantly lowered | phosphorylation level of p38MAPK in skin (Balb/C mice): significantly lowered | amount of COX2 transcriptome in skin (Balb/C mice): markedly lowered | amount of IL-1β transcriptome in skin (Balb/C mice): markedly lowered | amount of IL-6 transcriptome in skin (Balb/C mice): markedly lowered | amount of TNF-α transcriptome in skin (Balb/C mice): markedly lowered | amount of iNOS transcriptome in skin (Balb/C mice): markedly lowered | concentration of IgE in the blood (Balb/C mice): significantly lower | invasion of mast cells into the dermis (Balb/C mice): prevents
